Laboratory results taken from patent publication US3974184A, “Microbial production of certain isoflavones” (Zaidan Hojin Biseibutsu Kagaku Kenkyu Kai, priority 1973, dated 1976).

Key:
DOPA decarboxylase = target: T1, DOPA decarboxylase (Homo sapiens, UniProt P20711); test: Inhibition of DOPA decarboxylase (method of Davis and Awapara); assay type: biochemical; conditions: for inhibiting action against DOPA decarboxylase: in words; for IC50: read-out: concentration for 50% inhibition of DOPA decarboxylase (converted)
T1 sequence (P20711 1-480): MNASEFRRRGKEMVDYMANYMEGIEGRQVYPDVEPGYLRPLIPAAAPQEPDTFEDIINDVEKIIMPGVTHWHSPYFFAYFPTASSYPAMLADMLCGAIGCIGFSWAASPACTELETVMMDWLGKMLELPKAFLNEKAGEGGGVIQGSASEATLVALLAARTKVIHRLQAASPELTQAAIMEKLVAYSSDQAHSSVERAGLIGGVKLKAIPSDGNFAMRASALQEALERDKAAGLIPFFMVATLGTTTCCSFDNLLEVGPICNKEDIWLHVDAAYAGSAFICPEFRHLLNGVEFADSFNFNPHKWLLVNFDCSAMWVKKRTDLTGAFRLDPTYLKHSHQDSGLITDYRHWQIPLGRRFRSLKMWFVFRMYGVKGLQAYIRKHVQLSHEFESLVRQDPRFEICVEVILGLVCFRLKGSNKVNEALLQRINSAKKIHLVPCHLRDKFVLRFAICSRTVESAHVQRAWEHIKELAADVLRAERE
Text: It has been reported heretofore that an inhibitor against COMT delays the metabolism or rate of destruction of adrenaline, noradrenaline, etc. in the human body and, therefore, serves to prolong and promote their blood pressure elevating action. These inhibitors may also be used as curative or palliative medicines for diseases such as depression which is considered to be caused when catechol amines present in the human body are reduced in quantity. There has been much argument about etiological causes of schizophrenia. One hypothesis says that the schizophrenia is caused by the production of abnormally methylated bioamines (methylated catechol amines and serotonin) within the brain. Especially, hallucination of schizophrenia is said to be caused by abnormally methylated catechol amines (Ref. "Amines and Schizophrenia" by H. E. Himwich, S. S. Kety and J. R. Smythies, 1967, Pergamon Press, Oxford). The inhibitors of COMT may therefore be used as curative medicines for schizophrenia and for the associated hallucination. On the other hand, the anti-hemochlasis of isoflavones has been reported by Murata and Ikehata ("Agr. Biol. Chem." Vol. 32, No. 6, 1968, pp. 740-746) and the cholesterol deposition preventing action of isoflavones has been reported by G. W. Moersch, D. F. Morrow and W. A. Neuklis ("J. Med. Chem." 10(2), 1967, pp. 154-158). […] It will therefore be possible to use the compounds (I), (II) and (III) as curative medicines for diseases such as hypertension and arteriosclerosis and also as economizers in combination with DOPA for treating Parkinson's disease. […] This means that there is a possibility to use the compounds (I) and (II) as curative medicines for inflammation and allergy in man.

dopamin-β-hydroxylase = target: T2, dopamin-β-hydroxylase (Bos taurus, UniProt P15101); test: Inhibition of dopamin-β-hydroxylase; assay type: biochemical; conditions: at 100 .nu./cc
T2 sequence (P15101 1-610): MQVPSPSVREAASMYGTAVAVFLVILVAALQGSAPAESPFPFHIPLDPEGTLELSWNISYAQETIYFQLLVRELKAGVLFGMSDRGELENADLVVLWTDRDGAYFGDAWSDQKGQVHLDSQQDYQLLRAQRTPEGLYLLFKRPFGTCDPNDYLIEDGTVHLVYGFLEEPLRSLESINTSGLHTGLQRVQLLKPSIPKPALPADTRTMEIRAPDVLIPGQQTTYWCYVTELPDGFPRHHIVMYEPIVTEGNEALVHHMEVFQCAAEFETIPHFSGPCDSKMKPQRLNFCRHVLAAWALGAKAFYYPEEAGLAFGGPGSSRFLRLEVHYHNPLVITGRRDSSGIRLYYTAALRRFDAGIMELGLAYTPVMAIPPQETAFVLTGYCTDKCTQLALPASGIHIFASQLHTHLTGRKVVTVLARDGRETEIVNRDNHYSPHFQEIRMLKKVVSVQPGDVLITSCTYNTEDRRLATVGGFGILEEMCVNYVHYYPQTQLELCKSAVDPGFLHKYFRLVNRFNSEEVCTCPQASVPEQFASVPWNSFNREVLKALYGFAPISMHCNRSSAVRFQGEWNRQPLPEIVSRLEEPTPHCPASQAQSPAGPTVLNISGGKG

rats = test: Toxicity in rats, administration into the abdominal cavity; assay type: in vivo; conditions: 200 mg./kg., abdominal cavity of rats, 25% aqueous dimethyl sulfoxide
Text: Now the compounds (I), (II) and (III) will be described with respect to their biological properties.

tyrosine hydroxylase = test: Inhibition of tyrosine hydroxylase; assay type: biochemical; conditions: at 100 .nu./cc
fungi = test: Inhibiting action against growth of fungi; assay type: cell-based; conditions: at 100 .nu./cc

| Structure (SMILES) | inhibiting action against DOPA decarboxylase (DOPA decarboxylase) | IC50 (DOPA decarboxylase) [µM] | inhibiting action against dopamin-β-hydroxylase (dopamin-β-hydroxylase) | toxicity (rats) | inhibiting action against tyrosine hydroxylase (tyrosine hydroxylase) | inhibiting action against the growth of fungi (fungi) | inhibition of DOPA decarboxylase (DOPA decarboxylase; at a concentration as high as 100 .nu./cc) |
| --- | --- | --- | --- | --- | --- | --- | --- |
| COc1ccc(-c2coc3cc(O)c(OC)c(O)c3c2=O)cc1O [Compound (I), 3',5,7-trihydroxy-4',6-dimethoxy-isoflavone] | powerful inhibiting action | 37.8 | no inhibiting action | no toxicity | no inhibiting action | no inhibiting action |  |
| COc1ccc(-c2coc3c(OC)c(O)cc(O)c3c2=O)cc1O [Compound (II), 3',5,7-trihydroxy-4',8-dimethoxy-isoflavone] | powerful inhibiting action | 15.1 | no inhibiting action | no toxicity | no inhibiting action | no inhibiting action |  |
| COc1ccc(-c2coc3c(OC)c(O)c(OC)cc3c2=O)cc1O [Compound (III), 3',7-dihydroxy-4',6,8-trimethoxy-isoflavone] | no inhibiting action |  | no inhibiting action | no toxicity | no inhibiting action | no inhibiting action | no inhibition |
